The values below come from doi:10.1101/2021.05.03.442520v1 (biorxiv, 2021).

This assay concerns the target TMPRSS2 (Homo sapiens, UniProt O15393). As to the kind of experiment: fluorogenic pericellular protease assay, transfected Vero E6 cells. It is filed as cell-based. As to conditions: Vero C1008, read-out: % inhibition at 10 nM.

Sequence of TMPRSS2 (O15393 whole entry): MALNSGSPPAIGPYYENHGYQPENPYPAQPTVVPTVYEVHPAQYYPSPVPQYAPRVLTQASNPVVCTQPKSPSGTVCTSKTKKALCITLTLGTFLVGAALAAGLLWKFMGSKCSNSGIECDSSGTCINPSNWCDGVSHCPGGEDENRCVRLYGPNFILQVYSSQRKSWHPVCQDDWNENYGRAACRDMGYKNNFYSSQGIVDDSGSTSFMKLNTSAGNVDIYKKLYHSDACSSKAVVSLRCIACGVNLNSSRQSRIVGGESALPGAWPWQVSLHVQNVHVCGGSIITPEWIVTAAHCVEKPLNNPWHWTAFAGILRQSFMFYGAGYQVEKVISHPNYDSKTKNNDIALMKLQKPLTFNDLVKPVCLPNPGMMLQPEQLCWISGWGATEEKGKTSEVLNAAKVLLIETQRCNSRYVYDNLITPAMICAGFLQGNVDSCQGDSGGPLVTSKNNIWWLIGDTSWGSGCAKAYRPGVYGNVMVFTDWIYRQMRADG

A word on the inhibition: it is the relative decrease from the control value, in per cent. Regarding `N=C(N)NCCCCC(=O)N[C@@H](CCC(N)=O)C(=O)N[C@@H](CC1CCCCC1)C(=O)N[C@@H](CCCNC(=N)N)C(=O)c1nc2ccccc2s1` [N-0678], the inhibition at 0.01 µM came out at 5%.

As for `N=C(N)NCCC[C@H](NC(=O)[C@H](Cc1ccccc1)NC(=O)[C@H](CCC(N)=O)NC(=N)N)C(=O)c1nc2ccccc2s1` [N-1296], the inhibition at 0.01 µM stood at 16%.
